From patent publication US6291470A, “Indole derivatives process for producing the same and medicinal uses of the same” (Toray Industries, Inc., priority 1992, dated 2001)

What was measured:
δ-opioid receptor [1] = molecular target: T1, δ-opioid receptor (Mus musculus, UniProt P32300); test: δ-opioid antagonist activity against DPDPE in mouse vas deferens (MVD); details: for Ratio of IC50 Values: DPDPE IC50 with/without 100 nM test compound; for Ratio of IC50 Values / Kb: 20 min; for Kb: against DPDPE, test compound 100 nM, read-out: Ke
T1 construct: from tissue; host or cells: vas deferens of male ddy mice
Protocol: Using mouse vas deferens (MVD), the antagonist activity against DPDPE which is a δ-opioid agonist was checked.
(§1) In this experiment, ddy male mice were used. In a Magnus' tube which is filled with Krebes-Henseleit solution (NaCl […]; KCl 4.7 mM; CaCl2 2.5 mM; KH2 PO4 1.1 mM; NaHCO3 25 mM; glucose 11 mM) kept at 37° C., and into which an atmosphere consisting of 5% carbon dioxide and 95% oxygen was flown, vas deferens taken from the animals was suspended. Electric stimulation was applied through ring-shaped platinum electrodes mounted on the upper and lower portions of the tube at a frequency of 0.1 Hz and 5.0 mS duration. The contraction of the tissue was recorded on polygraph using isometric transducer.
(§2) Then 100 nM of the test compound was added. Twenty minutes later, DPDPE was begun to be added cumulatively. The ratio of IC50 values in the presence and absence of the test compound, Ke value (the molar concentration of the test compound necessary for translating the dose-effect curve to the curve of twice dose) and pA2 value were determined. The pA2 value was determined by the method of Shild et al (Shild, H. O., Br. J. Pharmac. Chamotehr., 4, 277 (1949)). That is, the logarithm of the test compound (log[test compound]) was plotted along the abscissa and the logarithm of the value obtained by subtracting 1 from the ratio of IC50 values was plotted in the presence and absence of the test compound [log(dose ratio-1)] along the ordinate. The pA2 value was determined from the value on the abscissa when the value on the ordinate of the obtained line is 0.

[2] = system: Cerebral cortex nerve cells; test: Brain cell-protecting action, MTT method; type: cell-based, rat; details: 10 μM
Protocol: The brain cell-protecting action was examined by MTT [3-(4,5-dimethylthiazol-2-yl)-2,5-diphenyltetrazolium bromide] method. MTT yields a dark blue formazan compound by mitochondria in living cells. This compound was dissolved in isopropanol and absorbance at 570 nm was measured, thereby measuring the number of living cells.
Cerebral cortex nerve cells of fetal rats of 17 days old were placed in wells of a 96-well plate at a population density of 1×10^5 cells/cm^2. Then 10 μM of a test compound was added and the cells were cultured in 200 μl of mixed medium of D-MEM/F.12 (1:1) for 3 days (37° C., 5%CO2). In a control group, the medium alone was added Then […] of MTT solution in PBS (6mg/ml) was added and the mixture was allowed to react for 3 hours (37° C., 5% CO2). After removing the culture medium, 100 μl of isopropanol was added and the absorbance was measured.
The ratio of the absorbances of the study group and the control group was employed as an index of brain cell-protecting action.

δ-opioid receptor [3] = molecular target: T1, δ-opioid receptor; test: Change in δ-antagonist activity against DPDPE with time in mouse vas deferens (MVD); details: for Ratio of IC50 Values / Kb: 173 and NTI at 20 nM, 174 and 5'-NTII at 100 nM; for Kb: read-out: Ke; for change of antagonist activity with time (in words): 15 min to 1 hour; for activity at 1 hour relative to 5'-NTII: vs 5'-NTII
Protocol: as §1, §2
Using MVD, the antagonist activities of compounds 173 and 174 against DPDPE were determined. The ratio of IC50 values, Ke values and pA2 values at 15 minutes, 30 minutes and 1 hour from the addition of the test compounds were calculated. Since the concentrations of the test compounds are different, the reciprocals of Ke values were plotted in FIGS. 1 and 2.

κ-opioid receptor = molecular target: T2, κ-opioid receptor (Cavia porcellus, UniProt P41144); test: κ-opioid antagonist activity against U-50488H in guinea pig ileum (GPI); details: 20 min; for Ratio of IC50 Values: U-50488H IC50 with/without 100 nM test compound; for Kb: against U-50488H, test compound 100 nM, read-out: Ke
T2 construct: from tissue; host or cells: ileum longitudinal muscle of male Hartley guinea pigs
Protocol: Using guinea pig ileum (GPI), antagonist activities against U-50488H which is a κ-opioid agonist was determined.
Hartley male guinea pigs were used. After killing the guinea pigs by clubbing, ilea were taken. The inside of the ilea was washed with a nutrient liquid and only longitudinal muscles were peeled off. Using the thus obtained longitudinal muscles, the tests were carried out using the same apparatus as used in the experiment employing MVD.
First, U-50488H which is a κ-agonist was cumulatively added and IC50 value was determined. Thereafter, the muscle was well washed with the nutrient liquid. After the contraction reaction became stable, 100 nM of a test compound was added. From 20 minutes after, U-50488H was cumulatively added and the ratio of IC50 values, Ke value and pA2 value were determined in the same manner as in the experiment employing MVD.

T1 sequence (P32300 whole entry): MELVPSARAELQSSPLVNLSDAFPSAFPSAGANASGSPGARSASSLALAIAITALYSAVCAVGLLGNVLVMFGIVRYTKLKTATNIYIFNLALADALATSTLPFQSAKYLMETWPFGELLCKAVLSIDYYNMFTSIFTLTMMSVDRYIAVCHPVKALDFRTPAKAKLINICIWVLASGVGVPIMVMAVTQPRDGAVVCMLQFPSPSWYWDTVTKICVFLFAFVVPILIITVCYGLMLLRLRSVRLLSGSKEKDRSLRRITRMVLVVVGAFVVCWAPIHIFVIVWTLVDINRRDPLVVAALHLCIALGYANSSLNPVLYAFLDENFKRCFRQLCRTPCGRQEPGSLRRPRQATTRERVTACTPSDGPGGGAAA
T2 sequence (P41144 whole entry): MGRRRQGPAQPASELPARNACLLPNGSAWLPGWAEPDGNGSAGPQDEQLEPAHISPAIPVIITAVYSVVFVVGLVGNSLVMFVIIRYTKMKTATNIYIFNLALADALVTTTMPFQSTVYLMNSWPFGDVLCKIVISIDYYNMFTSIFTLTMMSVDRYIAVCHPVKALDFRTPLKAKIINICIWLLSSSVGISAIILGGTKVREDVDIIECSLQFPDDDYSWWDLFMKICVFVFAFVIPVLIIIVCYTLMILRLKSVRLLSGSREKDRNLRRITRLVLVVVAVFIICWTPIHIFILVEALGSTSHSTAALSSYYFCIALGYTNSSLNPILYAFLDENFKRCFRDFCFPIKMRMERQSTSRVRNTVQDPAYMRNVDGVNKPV

Structure (SMILES)	Ratio of IC50 Values (δ-opioid receptor [1])	Kb (δ-opioid receptor [1])	other results
Oc1ccc2c3c1O[C@H]1c4[nH]c5ccc(CNCC6CC6)cc5c4C[C@@]4(O)[C@@H](C2)N(CC2CC2)CC[C@]314 [Compound 180, 17-cyclopropylmethyl-6,7-didehydro-4,5α-epoxy-3,14β-dihydroxy-5'-(N-cyclopropylmethylamino)methyl-6,7-2',3'-indolomorphinan]	15.2	7.04 nM	brain cell-protecting action (in words) ([2]; MTT): Clear activities; Ratio of Absorbances ([2]; study group / control group, 570 nm, 3 days culture): 8.73; brain cell-protecting activity relative to nor-BNI (in words) ([2]; vs nor-BNI): higher than that of nor-BNI
Oc1ccc2c3c1O[C@H]1c4[nH]c5c(N=C=S)cccc5c4C[C@@]4(O)[C@@H](C2)N(CC2CC2)CC[C@]314 [Compound 173, 17-cyclopropylmethyl-6,7-didehydro-4,5α-epoxy-3,14β-dihydroxy-7'-isothiocyanato-6,7-2',3'-indolomorphinan]			Ratio of IC50 Values (δ-opioid receptor [3]; 15 min): 105; Kb (δ-opioid receptor [3]; 15 min): 0.19 nM; change of antagonist activity with time (in words) (δ-opioid receptor [3]): increased with time; Ratio of IC50 Values (δ-opioid receptor [3]; 30 min): 253; Kb (δ-opioid receptor [3]; 30 min): 0.08 nM; Ratio of IC50 Values (δ-opioid receptor [3]; 60 min): 306; Kb (δ-opioid receptor [3]; 60 min): 0.07 nM; activity at 1 hour relative to 5'-NTII (δ-opioid receptor [3]; 1 hour): about 170 times; activity at 1 hour relative to NTI (δ-opioid receptor [3]; 1 hour, vs NTI): about 3.5 times; activity relative to compound 174 (in words) (δ-opioid receptor [3]; vs compound 174): inferior to that of compound 174
Oc1ccc2c3c1O[C@H]1c4[nH]c5cc(N=C=S)ccc5c4C[C@@]4(O)[C@@H](C2)N(CC2CC2)CC[C@]314 [Compound 174, 17-cyclopropylmethyl-6,7-didehydro-4,5α-epoxy-3,14β-dihydroxy-6'-isothiocyanato-6,7-2',3'-indolomorphinan]			Ratio of IC50 Values (δ-opioid receptor [3]; 15 min): 25.7; Kb (δ-opioid receptor [3]; 15 min): 4.05 nM; change of antagonist activity with time (in words) (δ-opioid receptor [3]): increased with time; Ratio of IC50 Values (δ-opioid receptor [3]; 30 min): 47.6; Kb (δ-opioid receptor [3]; 30 min): 2.15 nM; Ratio of IC50 Values (δ-opioid receptor [3]; 60 min): 58.6; Kb (δ-opioid receptor [3]; 60 min): 1.74 nM; activity at 1 hour relative to 5'-NTII (δ-opioid receptor [3]; 1 hour): about 7 times
CS(=O)(=O)c1cccc2c3c([nH]c12)[C@@H]1Oc2c(O)ccc4c2[C@@]12CCN(CC1CC1)[C@H](C4)[C@]2(O)C3 [Compound 190, 17-cyclopropylmethyl-6,7-didehydro-4,5α-epoxy-3,14β-dihydroxy-7'-methylsulfonyl-6,7-2',3'-indolomorphinan]	698	0.14 nM	δ-antagonist activity relative to NTI (times that of NTI) (δ-opioid receptor [1]): 1.3-1.6 times
CCOC(=O)Cc1ccc2c3c([nH]c2c1)[C@@H]1Oc2c(O)ccc4c2[C@@]12CCN(CC1CC1)[C@H](C4)[C@]2(O)C3 [Compound 49, 17-cyclopropylmethyl-6,7-didehydro-4,5α-epoxy-3,14β-dihydroxy-6'-ethoxycarbonylmethyl-6,7-2',3'-indolomorphinan]	27.8	3.73 nM	
O=C(NCC1CC1)c1cccc2[nH]c3c(c12)C[C@@]1(O)[C@H]2Cc4ccc(O)c5c4[C@@]1(CCN2CC1CC1)[C@H]3O5 [Compound 46, 17-cyclopropylmethyl-6,7-didehydro-4,5α-epoxy-3,14β-dihydroxy-4'-(N-cyclopropylmethylcarbamoyl)-6,7-2',3'-indolomorphinan]	1.39	256 nM	
C=CCN1CC[C@]23c4c5ccc(O)c4O[C@H]2c2[nH]c4cc(C(=O)OC)ccc4c2C[C@@]3(O)[C@H]1C5 [Compound 115, 17-allyl-6,7-didehydro-4,5α-epoxy-3,14β-dihydroxy-6'-methoxycarbonyl-6,7-2',3'-indolomorphinan]	75.4	1.34 nM	
O=S(=O)(NCC1CC1)c1ccc2c3c([nH]c2c1)[C@@H]1Oc2c(O)ccc4c2[C@@]12CCN(CC1CC1)[C@H](C4)[C@]2(O)C3 [Compound 45, 17-cyclopropylmethyl-6,7-didehydro-4,5α-epoxy-3,14β-dihydroxy-6'-(N-cyclopropylmethylsulfamoyl)-6,7-2',3'-indolomorphinan]	7.44	15.5 nM	Ratio of IC50 Values (κ-opioid receptor): 3.22; Kb (κ-opioid receptor): 45.1 nM
CCOC(=O)Cc1cccc2[nH]c3c(c12)C[C@@]1(O)[C@H]2Cc4ccc(O)c5c4[C@@]1(CCN2CC1CC1)[C@H]3O5 [Compound 48, 17-cyclopropylmethyl-6,7-didehydro-4,5α-epoxy-3,14β-dihydroxy-4'-ethoxycarbonylmethyl-6,7-2',3'-indolomorphinan]	5.88	20.5 nM	
N#Cc1ccc2[nH]c3c(c2c1)C[C@@]1(O)[C@H]2Cc4ccc(O)c5c4[C@@]1(CCN2CC1CC1)[C@H]3O5 [Compound 8, 17-cyclopropylmethyl-6,7-didehydro-4,5α-epoxy-3,14β-dihydroxy-5'-cyano-6,7-2',3'-indolomorphinan]	3.60	38.5 nM	
O=C(NCC1CC1)c1ccc2c3c([nH]c2c1)[C@@H]1Oc2c(O)ccc4c2[C@@]12CCN(CC1CC1)[C@H](C4)[C@]2(O)C3 [Compound 47, 17-cyclopropylmethyl-6,7-didehydro-4,5α-epoxy-3,14β-dihydroxy-6'-(N-cyclopropylmethylcarbamoyl)-6,7-2',3'-indolomorphinan]	13.0	8.33 nM	Ratio of IC50 Values (κ-opioid receptor): 3.11; Kb (κ-opioid receptor): 47.4 nM
Oc1ccc2c3c1O[C@H]1c4[nH]c5c(ccc6cnccc65)c4C[C@@]4(O)[C@@H](C2)N(CC2CC2)CC[C@]314 [Compound 156, 17-cyclopropylmethyl-3,14β-dihydroxy-4,5α-epoxy-6,7-didehydromorphinano[6,7-b]pyrido[4,3-g]indole]	26.6	3.91 nM	
OCCc1ccc2c3c([nH]c2c1)[C@@H]1Oc2c(O)ccc4c2[C@@]12CCN(CC1CC1)[C@H](C4)[C@]2(O)C3 [Compound 41, 17-cyclopropylmethyl-6,7-didehydro-4,5α-epoxy-3,14β-dihydroxy-6'-(2-hydroxyethyl)-6,7-2',3'-indolomorphinan]	22.1	4.74 nM	
CCOC(=O)c1ccc2[nH]c3c(c2c1)C[C@@]1(O)[C@H]2Cc4ccc(O)c5c4[C@@]1(CCN2CC1CC1)[C@H]3O5 [Compound 3, 17-cyclopropylmethyl-6,7-didehydro-4,5α-epoxy-3,14β-dihydroxy-5'-ethoxycarbonyl-6,7-2',3'-indolomorphinan]	5.34	23 nM	
CS(=O)(=O)c1ccc2c3c([nH]c2c1)[C@@H]1Oc2c(O)ccc4c2[C@@]12CCN(CC1CC1)[C@H](C4)[C@]2(O)C3 [Compound 188, 17-cyclopropylmethyl-6,7-didehydro-4,5α-epoxy-3,14β-dihydroxy-6'-methylsulfonyl-6,7-2',3'-indolomorphinan]	56.0	1.82 nM	
